This assay has as its target T1, ERR1 (also known as ERR-α or ERR-1) (Homo sapiens, UniProt P11474).
T1 sequence (P11474 193-421 limits assumed): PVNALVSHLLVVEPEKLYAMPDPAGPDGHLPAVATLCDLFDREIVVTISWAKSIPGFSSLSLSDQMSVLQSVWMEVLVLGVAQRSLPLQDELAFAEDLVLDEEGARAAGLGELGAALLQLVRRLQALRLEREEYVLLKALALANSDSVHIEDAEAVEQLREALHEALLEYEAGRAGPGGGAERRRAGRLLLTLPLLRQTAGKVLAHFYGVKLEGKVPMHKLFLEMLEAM
The experiment in a line: TR-FRET assay (disruption of co-activator peptide binding to ERR1 LBD). The class given is biochemical. To be noted: 6 nM 6His-ERR1LBD, 6 nM GST-SRC-2 peptide; average of 3 independent experiments. The essentials:
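Homogeneous TR-FRET measuring displacement of GST-hSRC2 co-activator peptide (6 nM) from His-tagged ERR1 LBD (6 nM), detected with α-GST Eu cryptate (30 nM) and α-His-XL665 (7.5 nM). Buffer 25 mM Tris pH 8, 2.5 mM Hepes, 20 mM KCl, 1 mM DTT, 0.05 mg/mL delipidated BSA; equilibration 4-18 h at 25° C. Hyperbolic dose-response fit, mean of 3 experiments.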
For orientation: EC50 means the concentration needed to bring the measured effect to its halfway point. A low value points to a more potent agent. Compound `O=C1S/C(=C\c2ccc3c(cnn3Cc3ccc(Cl)cc3C(F)(F)F)c2)C(=O)N1[C@@H]1CNC[C@@H]1F` (relative stereo) [Compound 322, (5Z)-5-({1-[4-Chloro-2-(trifluoromethyl)benzyl]-1H-indazol-5-yl}methylidene)-3-[cis-4-fluoropyrrolidin-3-yl]-1,3-thiazolidine-2,4-dione] yielded an EC50 of 60 nM.
For `O=C(O)C1CCC(N2C(=O)S/C(=C\c3ccc4c(c3)nnn4Cc3ccc(Cl)cc3C(F)(F)F)C2=O)CC1` (stereo not drawn) [Compound 266, 4-[(5Z)-5-({1-[4-Chloro-2-(trifluoromethyl)benzyl]-1H-benzotriazol-5-yl}methylidene)-2,4-dioxo-1,3-thiazolidin-3-yl]cyclohexanecarboxylic acid] the value was 29 nM.
The result for `CCN1CC[C@@H](N2C(=O)S/C(=C\c3ccc4c(c3)c(C)nn4Cc3ccc(Cl)cc3C(F)(F)F)C2=O)[C@H](F)C1` (relative stereo) [Compound 334, (5Z)-5-({1-[4-Chloro-2-(trifluoromethyl)benzyl]-3-methyl-1H-indazol-5-yl}methylidene)-3-[trans-1-ethyl-3-fluoropiperidin-4-yl]-1,3-thiazolidine-2,4-dione] reads 48 nM.
The result for `O=C1S/C(=C\c2ccc3c(c2)c(O)nn3Cc2ccc(Cl)cc2C(F)(F)F)C(=O)N1CCN1CCCC1` [Compound 37, (5Z)-5-({1-[4-Chloro-2-(trifluoromethyl)benzyl]-3-oxo-2,3-dihydro-1H-indazol-5-yl}methylidene)-3-(2-pyrrolidin-1-ylethyl)-1,3-thiazolidine-2,4-dione] reads 290 nM; that for `O=C1S/C(=C\c2ccc3c(cnn3Cc3ccc(Cl)cc3C(F)(F)F)c2)C(=O)N1[C@@H]1CCN[C@@H](CO)C1` (relative stereo) [Compound 269, (5Z)-5-({1-[4-Chloro-2-(trifluoromethyl)benzyl]-1H-indazol-5-yl}methylidene)-3-[trans-2-(hydroxymethyl)piperidin-4-yl]-1,3-thiazolidine-2,4-dione], 67 nM; that for `Cc1nn(Cc2ccc(Cl)cc2C(F)(F)F)c2ccc(/C=C3\SC(=O)N([C@@H]4CCNC[C@H]4F)C3=O)cc12` (relative stereo) [Compound 333, (5Z)-5-({1-[4-Chloro-2-(trifluoromethyl)benzyl]-3-methyl-1H-indazol-5-yl}methylidene)-3-[trans-3-fluoropiperidin-4-yl]-1,3-thiazolidine-2,4-dione], 48 nM.
In the case of `CCN(CC)CCN1C(=O)S/C(=C\c2ccc3c(cnn3Cc3ccc(OC)cc3C(F)(F)F)c2)C1=O` [Compound 18, (5Z)-3-[2-(Diethylamino)ethyl]-5-({1-[4-methoxy-2-(trifluoromethyl)benzyl]-1H-indazol-5-yl}methylidene)-1,3-thiazolidine-2,4-dione], a half-maximal effect (EC50) was put at 20 nM. This EC50 lies about 2.4-fold lower than the previous one.
The result for `O=C1S/C(=C\c2ccc3c(cnn3Cc3ccc(Cl)cc3C(F)(F)F)c2)C(=O)N1CCN1C[C@@H]2C[C@H]1CN2` [Compound 78, (5Z)-5-({1-[4-Chloro-2-(trifluoromethyl)benzyl]-1H-indazol-5-yl}methylidene)-3-[2-(1S,4S)-(2,5-diazabicyclo[2.2.1]hept-2-yl)ethyl]-1,3-thiazolidine-2,4-dione] reads 41 nM; that for `COC(=O)NC1(CN2C(=O)S/C(=C\c3ccc4c(cnn4Cc4ccc(Cl)cc4C(F)(F)F)c3)C2=O)CCOCC1` [Compound 309, Methyl (4-{[(5Z)-5-({1-[4-chloro-2-(trifluoromethyl)benzyl]-1H-indazol-5-yl}methylidene)-2,4-dioxo-1,3-thiazolidin-3-yl]methyl}tetrahydro-2H-pyran-4-yl)carbamate], 15 nM.
For `CN(CCN1C(=O)S/C(=C\c2ccc3c(cnn3Cc3ccc(Cl)cc3C(F)(F)F)c2)C1=O)S(=O)(=O)N1CCCC1` [Compound 396, N-{2-[(5Z)-5-({1-[4-Chloro-2-(trifluoromethyl)benzyl]-1H-indazol-5-yl}methylidene)-2,4-dioxo-1,3-thiazolidin-3-yl]ethyl}-N-methylpyrrolidine-1-sulfonamide] the value was 112 nM; for `O=C(O)C(Cc1cccnc1)N1C(=O)S/C(=C\c2ccc3c(cnn3Cc3ccc(Cl)cc3C(F)(F)F)c2)C1=O` (stereo not drawn) [Compound 225, 2-[(5Z)-5-({1-[4-Chloro-2-(trifluoromethyl)benzyl]-1H-indazol-5-yl}methylidene)-2,4-dioxo-1,3-thiazolidin-3-yl]-3-pyridin-3-ylpropanoic acid], 32 nM.
For `O=C1S/C(=C\c2ccc3c(cnn3Cc3ccc(Cl)cc3C(F)(F)F)c2)C(=O)N1[C@@H]1CCNC[C@H]1O` (relative stereo) [Compound 270, (5Z)-5-({1-[4-Chloro-2-(trifluoromethyl)-benzyl]-1H-indazol-5-yl}methylidene)-3-[trans-3-hydroxypiperidin-4-yl]-1,3-thiazolidine-2,4-dione] the value was 25 nM; for `CN(C)CCN1C(=O)S/C(=C\c2ccc3c(ccn3Cc3ccc(C(F)(F)F)cc3C(F)(F)F)c2)C1=O` [Compound 240, (5Z)-5-[(1-{[2,4-Bis(trifluoromethyl)-phenyl]methyl}-1H-indol-5-yl)methylidene]-3-[2-(dimethylamino)ethyl]-1,3-thiazolidine-2,4-dione], 70 nM.
Compound `CCN1CC[C@@H](N2C(=O)S/C(=C\c3ccc4c(cnn4Cc4ccc(Cl)cc4C(F)(F)F)c3)C2=O)[C@H](F)C1` (single isomer, unassigned) [Compound 326, (5Z)-5-({1-[4-Chloro-2-(trifluoromethyl)benzyl]-1H-indazol-5-yl}methylidene)-3-[trans-1-ethyl-3-fluoropiperidin-4-yl]-1,3-thiazolidine-2,4-dione] yielded an EC50 of 140 nM.
In turn, `O=C1S/C(=C\c2ccc3c(cnn3Cc3ccc(Cl)cc3C(F)(F)F)c2)C(=O)N1Cc1nccn1S(=O)(=O)C(F)(F)F` [Compound 411, (5Z)-5-({1-[4-Chloro-2-(trifluoromethyl)benzyl]-1H-indazol-5-yl}methylidene)-3-({1-[(trifluoromethyl)sulfonyl]-1H-imidazol-2-yl}methyl)-1,3-thiazolidine-2,4-dione] had an EC50 of 29 nM. This EC50 lies about 4.8-fold lower than the previous one.
For `CN1CCCC1CCN1C(=O)S/C(=C\c2ccc3c(cnn3Cc3ccc(Cl)cc3C(F)(F)F)c2)C1=O` (stereo not drawn) [Compound 140, (5Z)-5-({1-[4-Chloro-2-(trifluoromethyl)benzyl]-1H-indazol-5-yl}methylidene)-3-[2-(1-methylpyrrolidin-2-yl)ethyl]-1,3-thiazolidine-2,4-dione] the value was 32 nM.
For `O=C1S/C(=C\c2ccc3c(c2)nnn3Cc2ccc(Cl)cc2C(F)(F)F)C(=O)N1CCN1CCCC1` [Compound 258, (5Z)-5-({1-[4-Chloro-2-(trifluoromethyl)benzyl]-1H-benzotriazol-5-yl}methylidene)-3-(2-pyrrolidin-1-ylmethyl)-1,3-thiazolidine-2,4-dione] the value was 24 nM; for `CN1[C@@H]2CC[C@H]1C[C@H](N1C(=O)S/C(=C\c3ccc4c(cnn4Cc4ccc(C(F)(F)F)cc4C(F)(F)F)c3)C1=O)C2` [Compound 62, (5Z)-5-({1-[2,4-Bis(trifluoromethyl)benzyl]-1H-indazol-5-yl}methylidene)-3-[(3-exo)-8-methyl-8-azabicyclo[3.2.1]oct-3-yl]-1,3-thiazolidine-2,4-dione], 19 nM.
In the case of `CNN1C(=O)S/C(=C\c2ccc3c(cnn3Cc3ccc(C(F)(F)F)cc3C(F)(F)F)c2)C1=O` [Compound 357, (5Z)-5-({1-[2,4-Bis(trifluoromethyl)benzyl]-1H-indazol-5-yl}methylidene)-3-(methylamino)-1,3-thiazolidine-2,4-dione], the EC50 came out at 39 nM.
The compound `CS(=O)(=O)NN1C(=O)S/C(=C\c2ccc3c(c2)c(Cl)nn3Cc2ccc(Cl)cc2C(F)(F)F)C1=O` [Compound 366, N-[(5Z)-5-({3-Chloro-1-[4-chloro-2-(trifluoromethyl)benzyl]-1H-indazol-5-yl}methylidene)-2,4-dioxo-1,3-thiazolidin-3-yl]methanesulfonamide] showed an EC50 of 6 nM.
The result for `O=C1S/C(=C\c2ccc3c(cnn3Cc3ccc(Cl)cc3C(F)(F)F)c2)C(=O)N1C[C@@H]1CNCCO1` [Compound 183, (5Z)-5-({1-[4-Chloro-2-(trifluoromethyl)benzyl]-1H-indazol-5-yl}methylidine)-3-[(2S)-morpholin-2-ylmethyl]-1,3-thiazolidine-2,4-dione] reads 170 nM; that for `NC(=O)CN1CCN(N2C(=O)S/C(=C\c3ccc4c(cnn4Cc4ccc(Cl)cc4C(F)(F)F)c3)C2=O)CC1` [Compound 353, 2-{4-[(5Z)-5-({1-[4-Chloro-2-(trifluoromethyl)benzyl]-1H-indazol-5-yl}methylidene)-2,4-dioxo-1,3-thiazolidin-3-yl]piperazin-1-yl}acetamide], 11 nM.
For `O=C1S/C(=C\c2ccc3c(c2)c(Cl)nn3Cc2ccc(Cl)cc2C(F)(F)F)C(=O)N1CCN1CCCC1` [Compound 300, (5Z)-5-({3-Chloro-1-[4-chloro-2-(trifluoromethyl)benzyl]-1H-indazol-5-yl}methylidene)-3-(2-pyrrolidin-1-ylethyl)-1,3-thiazolidine-2,4-dione] the value was 7 nM.
For `CCOC(=O)CN1C(=O)S/C(=C\c2ccc3c(c2)nnn3Cc2ccc(Cl)cc2C(F)(F)F)C1=O` [Compound 259, Ethyl [(5Z)-5-({1-[4-chloro-2-(trifluoromethyl)benzyl]-1H-benzotriazol-5-yl}methylidene)-2,4-dioxo-1,3-thiazolidin-3-yl]acetate] the value was 22 nM.

For the origin of these results see patent US8796256B2 (Janssen Pharmaceutica NV, priority 2010, dated 2014).
